Experimental data reported in US20240217961A1 (MONOPTEROS THERAPEUTICS, INC., priority 2021, published 2024).
≈ marks a conversion by molar mass, not a printed value. Read-outs that look alike come from different tables or passages of the source.

Experiments:
pKa of free form (UV) = assay type: physicochemical
[1] = Approximate solubility of free form in solvents at 25° C. (manual dilution, visual observation); assay type: physicochemical; conditions: thermodynamic from solid, read-out: Solubility (mg/mL) at 25° C.
Procedure: The experiment was conducted by manual dilution combined with visual observation at 25° C. The total volumes of solvents added were recorded.

human CYP2B6 = target: T1, human CYP2B6 (Homo sapiens, UniProt P20813); assay: CYP phenotyping, recombinant CYP enzyme incubation; assay type: in vitro ADME
T1 sequence (P20813 1-491): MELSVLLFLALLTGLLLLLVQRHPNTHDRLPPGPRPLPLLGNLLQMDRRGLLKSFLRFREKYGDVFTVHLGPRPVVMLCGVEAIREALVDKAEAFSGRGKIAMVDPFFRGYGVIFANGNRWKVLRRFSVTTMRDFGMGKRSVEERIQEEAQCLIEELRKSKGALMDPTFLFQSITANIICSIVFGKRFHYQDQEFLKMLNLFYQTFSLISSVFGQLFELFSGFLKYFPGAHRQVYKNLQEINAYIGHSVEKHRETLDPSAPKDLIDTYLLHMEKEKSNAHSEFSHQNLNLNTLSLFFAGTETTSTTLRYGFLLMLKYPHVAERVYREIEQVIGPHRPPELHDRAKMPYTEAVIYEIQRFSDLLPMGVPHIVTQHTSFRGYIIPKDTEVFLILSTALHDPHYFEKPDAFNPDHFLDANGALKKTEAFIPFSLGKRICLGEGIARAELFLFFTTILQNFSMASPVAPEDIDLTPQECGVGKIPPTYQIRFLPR
Procedure: These incubations were carried out at a concentration of 1 µM and contained 50 pmol/ml of CYP protein. Samples were taken at 0, 5, 10, 15, 20 and 30 minutes. The CLint and t1/2 were calculated from the data.

human liver microsomes = assay: CYP phenotyping, human liver microsomes with or without specific chemical inhibitors; assay type: in vitro ADME; conditions: for Inhibition % / % Remaining at 60 min: human liver microsomes; for % Remaining at 60 min: mean ± SD, n = 3
Procedure: Human liver microsomes with or without specific inhibitors: By using human liver microsomes with chemical inhibitor, compared to without chemical inhibitor, the incubation was carried out at a concentration of 1 µM with samples taken 0, 15, 30, 45 and 60 min, and analyzed by UPLC-MS/MS to quantitate the concentration of parent remaining. The % remaining was calculated.

CN1CCC[C@H](CN2c3ccccc3Sc3ccccc32)C1 [(S)-mepazine, (S)-10-((1-methylpiperidin-3-yl)methyl)-10H-phenothiazine]
pKa (pKa of free form (UV)): 9.24 | solubility ([1]; 1,4-dioxane, organic solvent or mixture): > 100 mg/mL | solubility ([1]; 2-propanol, organic solvent or mixture): 33.3 to 50 mg/mL (≈ 107 to 161 mM) | solubility ([1]; DMF, organic solvent or mixture): > 100 mg/mL | solubility ([1]; acetone, organic solvent or mixture): > 100 mg/mL | solubility ([1]; acetonitrile, organic solvent or mixture): 25 to 33.3 mg/mL (≈ 80.5 to 107 mM) | solubility ([1]; dichloromethane, organic solvent or mixture): > 100 mg/mL | solubility ([1]; ethanol, organic solvent or mixture): > 100 mg/mL | solubility ([1]; ethyl acetate, organic solvent or mixture): 50 to 100 mg/mL (≈ 161 to 322 mM) | solubility ([1]; heptane, organic solvent or mixture): 10 to 14.3 mg/mL (≈ 32.2 to 46.1 mM) | solubility ([1]; isopropyl acetate, organic solvent or mixture): 50 to 100 mg/mL (≈ 161 to 322 mM) | solubility ([1]; methanol, organic solvent or mixture): > 100 mg/mL | solubility ([1]; methyl ethyl ketone, organic solvent or mixture): > 100 mg/mL | solubility ([1]; t-butyl methyl ether, organic solvent or mixture): 25 to 33.3 mg/mL (≈ 80.5 to 107 mM) | solubility ([1]; tetrahydrofuran, organic solvent or mixture): > 100 mg/mL | solubility ([1]; toluene, organic solvent or mixture): > 100 mg/mL | solubility ([1]; water): < 2 mg/mL | Contribution % (human CYP2B6; CYP2B6): 0.00% | metabolism by recombinant CYP isoform (human CYP2B6; recombinant CYP2B6): not found to substantially metabolize | CLint (human CYP2B6; recombinant CYP2B6, 1 µM, turnover not significant and > 80% remaining at last time point reported as 0.00): 0.00 μL/min/pmol CYP | t1/2 (human CYP2B6; recombinant CYP2B6, 1 µM, turnover not significant and > 80% remaining at last time point reported as ∞): ∞ | inhibition % of (S)-mepazine metabolism (human liver microsomes; human liver microsomes with inhibitor of CYP2C8): < 20% | Inhibition % (human liver microsomes; CYP1A2 (Furafylline)): 31.6% | % Remaining at 60 min (human liver microsomes; CYP1A2 (Furafylline)): 55.3 ± 4.07% | Inhibition % (human liver microsomes; CYP2A6 (Tranylcypromine)): 25.6% | % Remaining at 60 min (human liver microsomes; CYP2A6 (Tranylcypromine)): 53.4 ± 2.69% | Inhibition % (human liver microsomes; CYP2B6 (Ticlopidine)): 22.8% | % Remaining at 60 min (human liver microsomes; CYP2B6 (Ticlopidine)): 52.6 ± 3.79% | Inhibition % (human liver microsomes; CYP2C8 (Montelukast)): 19.3% | % Remaining at 60 min (human liver microsomes; CYP2C8 (Montelukast)): 50.5 ± 4.24% | Inhibition % (human liver microsomes; CYP2C9 (Sulfaphenazole)): 33.9% | % Remaining at 60 min (human liver microsomes; CYP2C9 (Sulfaphenazole)): 57.4± 2.68% | Inhibition % (human liver microsomes; CYP2C19 (N-3-benzylnirvanol)): 24.3% | % Remaining at 60 min (human liver microsomes; CYP2C19 (N-3-benzylnirvanol)): 53.1 ± 1.75% | Inhibition % (human liver microsomes; CYP2D6 (Quinidine)): 74.4% | % Remaining at 60 min (human liver microsomes; CYP2D6 (Quinidine)): 80.9 ± 3.69% | Inhibition % (human liver microsomes; CYP3A (Ketoconazole)): 21.4% | % Remaining at 60 min (human liver microsomes; CYP3A (Ketoconazole)): 50.2 ± 4.00% | Inhibition % (human liver microsomes; Without inhibitor): 0.00% | % Remaining at 60 min (human liver microsomes; Without inhibitor): 44.7 ± 2.57%
